In PMC4868691, “β-catenin nuclear translocation in colorectal cancer cells is suppressed by PDE10A inhibition, cGMP elevation, and activation of PKG” (Oncotarget, 2015):
pIC50: −log10 of the molar value. Where two headings read alike, the source gives them in different places. Values belong to the molecule of their own block, whether it stands above or below them.

Key:
HT-29 cells [1] = assay: Kinase inhibitor pretreatment, VASP phosphorylation after Pf-2545920 stimulation; format: cell-based, human
Protocol: (§1) C. […] They are assigned to Pf-2545920 because the x-axis label names it as the compound given in dose-response.
(§2) Cell lysates were separated by SDS-PAGE using 12% polyacrylamide gel, 7.5% for PDE10 protein analysis, followed by electrophoretic transfer to nitrocellulose membranes. The membranes were then blocked at room temperature on an orbital shaker for 1 hour in a solution of 5% non-fat dry milk in TBS with 0.1% Tween 20 (TBS-T). Membranes were then incubated overnight at 4 degrees on an orbital shaker with appropriate primary antibodies. Membranes were then washed three times with TBS-T before addition of appropriate secondary antibodies, and incubated at room temperature for 1 hour on an orbital shaker. Membranes were washed and developed using SuperSignal West Enhanced Chemiluminescence Reagent (Pierce).

HT-29 cells [2] = assay: PARP cleavage by Western blot; format: cell-based, human; conditions: HT-29, 0.1 μM KT 5823 for 30 minutes before Pf-2545920 at 5 μM and 10 μM for 6 hours
Protocol: as §2

HT-29 colon tumor cells = assay: Fluorescent cytotoxicity assay (CellTox Green); format: cell-based, human; conditions: dose response over time
Protocol: Cells were plated in 96-well microtiter plates at a […] of 5,000 cells per well and treated with compound or vehicle control at the doses and times indicated. Cytotoxicity was measured using CellTox Green Cytotoxicity Assay (Promega) according to the manufacturer's recommendations.

KM12 = assay: Growth inhibition assay (Cell Titer Glo), KM12; format: cell-based; conditions: Homo sapiens; KM12, 72 hours
Protocol: (§3) Growth Assays were performed by seeding 5,000 cells per well in a 96-well microtiter plate, or 2,500 cells per well in half-area 96-well microtiter plates. Cells were allowed to settle onto the bottom of the plate before being dosed with compounds in dose-response for 72 hours at 37°C in a humidified incubator containing 5% CO2. After incubation, growth inhibitory activity was assayed using the Cell Titer Glo Assay (Promega) according to manufacturer's recommendations.

PDE2A = PDE2A (Homo sapiens, UniProt O00408); assay: Phosphodiesterase isozyme specificity, PDE2A; format: biochemical
HCC-2998 = assay: Growth inhibition assay (Cell Titer Glo), HCC-2998; format: cell-based; conditions: Homo sapiens; HCC-2998, 72 hours
Protocol: as §3

SW-480 colon tumor cells = assay: β-catenin nuclear translocation under Wnt3a stimulation (confocal immunofluorescence); format: cell-based, human; conditions: pre-incubation 30 minutes, Wnt3a conditioned media 5 hours
Protocol: Cover glass bottom 35mm tissue culture dishes were precoated with EmbryoMax 0.1% gelatin from Millipore according to manufacturer's recommendations. Cells were then plated and allowed to grow to 70-90% confluency before treatments. SW-480 cells were serum starved overnight prior to the addition of PDE10 inhibitors at the concentrations indicated. […] Briefly, Wnt3a or parental L-cells lacking Wnt3a were purchased from the ATCC and grown according to the manufacurer's recommendations. Once cells reached confluency, the media was collected and filtered before use. Conditioned media was added to SW-480 cells in order to stimulate nuclear translocation of β-catenin for 5 hours before fixation and staining. Cover glass bottom 35mm tissue culture dishes were precoated with EmbryoMax 0.1% gelatin from Millipore according to manufacturer's recommendations. Cells were then plated and allowed to grow to 70-90% confluency before treatments. Cells were fixed with 10% buffered formalin, before permeabilization with PBS containing 0.1% Trition X-100. Cells were incubated with the appropriate primary antibodies before incubation with secondary antibodies conjugated with Alexa-fluor 488 and mounted using ProLong Gold antifade reagent with DAPI (Molecular Probes-ThermoFisher Scientific). Images were acquired using a Nikon A1 Laser Scanning Confocal microscope. […]

PDE9A = PDE9A (Homo sapiens, UniProt O76083); assay: Phosphodiesterase isozyme specificity, PDE9A; format: biochemical; conditions: cGMP substrate, @ 10 μM
PDE5 = PDE5 (Homo sapiens, UniProt O76074); assay: Phosphodiesterase isozyme specificity, PDE5; format: biochemical; conditions: PDE5, cGMP substrate
HT-29 cells [3] = assay: Apoptosis, Annexin V-FITC + PI staining by FACS; format: cell-based, human; conditions: 72 hours; for cells staining positive for Annexin V: lower right quadrant; for cells staining positive for both Annexin V and PI: upper right quadrant
Protocol: Apoptosis was assayed using the Annexin V-FITC + PI apoptosis detection kit from Leinco Technologies according to the manufacturer's recommendations. HT-29 cells were incubated with compounds for 72 hrs at 37°C before being analyzed for apoptosis by FACS.

HCT-15 = assay: Growth inhibition assay (Cell Titer Glo), HCT-15; format: cell-based; conditions: Homo sapiens; HCT-15, 72 hours
Protocol: as §3

SW620 = assay: Growth inhibition assay (Cell Titer Glo), SW620; format: cell-based; conditions: Homo sapiens, SW-620; SW620, 72 hours
Protocol: as §3

[4] = system: panel of nine human colon tumor cell lines; assay: Growth inhibition, panel of nine human colon tumor cell lines; format: cell-based; conditions: 72 hours, read-out: growth inhibition IC50 values, range over all lines
Protocol: as §3

[5] = system: HCT-116 colon tumor cells; assay: VASP/CREB phosphorylation by Western blot (PKG and PKA activation); format: cell-based, human
Protocol: as §2

PDE1A = PDE1A (Homo sapiens, UniProt P54750); assay: Phosphodiesterase isozyme specificity, PDE1A; format: biochemical; conditions: @ 10 μM
[6] = system: HT-29 PDE10 knockdown cells; assay: Growth inhibition, HT-29 PDE10 knockdown cells; format: cell-based; conditions: Homo sapiens; HT-29 PDE10 knockdown (shRNA) cells
Protocol: as §3
(§4) HT-29 PDE10 knockdown cells were generated and described previously. Briefly, lentiviral particles targeting PDE10 were produced in HEK293T cells according to the manufacturer's instruction. HT-29 cells were transduced by the lentivirus particles followed by puromycin selection (5μg/ml) for 2 weeks. Individual cell colonies stably expressing shRNA were selected and isolated in the presence of puromycin, and evaluated by western blotting previously.

[7] = system: HT-29 vector control cells; assay: Growth inhibition, HT-29 vector control cells; format: cell-based; conditions: Homo sapiens
Protocol: as §3, §4

PDE3B = PDE3B (Homo sapiens, UniProt Q13370); assay: Phosphodiesterase isozyme specificity, PDE3B; format: biochemical; conditions: @ 10 μM
HCT-116 [8] = assay: Intracellular cAMP levels; format: cell-based, human; conditions: HCT-116, concentration-dependent
PDE4B2 = PDE4B2 (Homo sapiens, UniProt Q07343); assay: Phosphodiesterase isozyme specificity, PDE4B2; format: biochemical; conditions: PDE4B2, cAMP substrate
PDE11A = PDE11A (Homo sapiens, UniProt Q9HCR9); assay: Phosphodiesterase isozyme specificity, PDE11A; format: biochemical; conditions: @ 10 μM
HT-29 cells [9] = assay: Growth inhibition with or without H89 pretreatment (CellTiter-Glo); format: cell-based, human; conditions: for pIC50: Homo sapiens
Protocol: as §1, §3

COLO-205 = assay: Growth inhibition assay (Cell Titer Glo), COLO-205; format: cell-based; conditions: Homo sapiens; COLO-205, 72 hours
Protocol: as §3

HCT-116 [10] = assay: cGMP EIA assay, intracellular cGMP; format: cell-based, human; conditions: HCT-116, concentration-dependent
Protocol: Total levels of cGMP were measured using a competitive ELISA assay (Cayman Chemical) according to the manufacturer's recommendations. A standard curve is generated using samples of known cGMP concentrations provided with the assay and plotted using linear regression to extrapolate samples.

HCT116 = assay: Growth inhibition assay (Cell Titer Glo), HCT116; format: cell-based; conditions: Homo sapiens, HCT-116; HCT116, 72 hours
Protocol: as §3

PDE3A = PDE3A (Homo sapiens, UniProt Q14432); assay: Phosphodiesterase isozyme specificity, PDE3A; format: biochemical
colon tumor cell = assay: Colon tumor cell growth, rolipram; format: cell-based; conditions: concentrations up to 100 μM, data not shown
[11] = HT-29, 30 minutes pretreatment in ascending concentrations, then 5 μM Pf-2545920 for 1 hour
[12] = cAMP substrate, read-out: cAMP IC50
[13] = cGMP substrate, read-out: cGMP IC50
[14] = HT-29, 10 minutes pretreatment in ascending concentrations, then 5μM Pf-2545920 for 1 hour

PDE2A, sequence (O00408 whole entry, species assumed): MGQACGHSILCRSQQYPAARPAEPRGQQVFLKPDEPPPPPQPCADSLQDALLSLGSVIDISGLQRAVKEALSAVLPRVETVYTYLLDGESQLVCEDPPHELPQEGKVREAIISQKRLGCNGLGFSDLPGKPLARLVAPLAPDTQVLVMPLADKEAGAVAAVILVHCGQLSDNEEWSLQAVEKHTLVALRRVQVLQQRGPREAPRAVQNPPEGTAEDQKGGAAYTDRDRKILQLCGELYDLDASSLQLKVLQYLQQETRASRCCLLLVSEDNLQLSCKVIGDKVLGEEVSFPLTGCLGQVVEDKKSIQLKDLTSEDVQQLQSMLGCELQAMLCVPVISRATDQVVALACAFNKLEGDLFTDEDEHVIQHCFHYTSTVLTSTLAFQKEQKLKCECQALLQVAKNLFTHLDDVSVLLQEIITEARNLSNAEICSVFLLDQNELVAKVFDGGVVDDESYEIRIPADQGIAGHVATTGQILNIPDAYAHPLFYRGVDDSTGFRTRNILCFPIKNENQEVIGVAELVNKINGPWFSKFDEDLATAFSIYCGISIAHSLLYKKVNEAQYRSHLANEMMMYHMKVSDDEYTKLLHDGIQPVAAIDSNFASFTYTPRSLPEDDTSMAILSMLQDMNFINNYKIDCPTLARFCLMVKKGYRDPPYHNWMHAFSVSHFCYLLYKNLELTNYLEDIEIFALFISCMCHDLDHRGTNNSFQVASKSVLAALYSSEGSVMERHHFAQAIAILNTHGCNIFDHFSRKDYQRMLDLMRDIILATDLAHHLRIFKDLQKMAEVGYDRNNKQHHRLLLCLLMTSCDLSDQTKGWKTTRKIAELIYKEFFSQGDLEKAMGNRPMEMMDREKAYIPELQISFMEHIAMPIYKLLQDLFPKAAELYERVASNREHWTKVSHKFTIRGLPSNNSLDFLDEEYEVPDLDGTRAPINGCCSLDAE
PDE3B, sequence (Q13370 whole entry, species assumed): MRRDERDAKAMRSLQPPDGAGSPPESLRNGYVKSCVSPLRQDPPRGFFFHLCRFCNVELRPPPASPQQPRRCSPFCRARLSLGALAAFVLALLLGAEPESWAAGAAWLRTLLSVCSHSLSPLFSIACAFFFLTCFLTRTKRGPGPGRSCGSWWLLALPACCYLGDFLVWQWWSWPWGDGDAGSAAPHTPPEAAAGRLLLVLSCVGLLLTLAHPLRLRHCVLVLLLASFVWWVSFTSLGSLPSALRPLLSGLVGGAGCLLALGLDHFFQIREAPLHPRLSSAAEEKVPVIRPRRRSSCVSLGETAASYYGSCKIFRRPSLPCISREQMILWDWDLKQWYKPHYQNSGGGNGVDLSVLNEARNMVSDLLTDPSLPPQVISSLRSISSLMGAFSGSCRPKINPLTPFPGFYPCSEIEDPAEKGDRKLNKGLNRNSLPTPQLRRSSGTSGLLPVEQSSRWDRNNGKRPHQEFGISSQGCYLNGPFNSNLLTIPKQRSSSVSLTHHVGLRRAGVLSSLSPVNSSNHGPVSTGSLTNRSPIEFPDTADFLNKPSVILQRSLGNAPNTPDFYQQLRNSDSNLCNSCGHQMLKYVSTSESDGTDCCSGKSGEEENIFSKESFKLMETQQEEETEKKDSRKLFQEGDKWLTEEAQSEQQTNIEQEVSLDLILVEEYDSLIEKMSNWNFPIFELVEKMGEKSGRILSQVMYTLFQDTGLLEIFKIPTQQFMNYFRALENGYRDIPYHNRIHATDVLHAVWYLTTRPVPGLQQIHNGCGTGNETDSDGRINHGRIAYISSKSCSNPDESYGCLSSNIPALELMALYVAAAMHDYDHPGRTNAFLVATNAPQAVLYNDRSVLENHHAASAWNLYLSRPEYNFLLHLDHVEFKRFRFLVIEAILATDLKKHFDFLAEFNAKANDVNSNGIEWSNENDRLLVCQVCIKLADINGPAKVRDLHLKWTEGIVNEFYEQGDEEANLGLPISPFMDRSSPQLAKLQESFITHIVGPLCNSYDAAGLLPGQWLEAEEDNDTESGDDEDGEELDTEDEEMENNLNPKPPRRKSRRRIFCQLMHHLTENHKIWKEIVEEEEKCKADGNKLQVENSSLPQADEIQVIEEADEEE
PDE1A, sequence (P54750 whole entry, species assumed): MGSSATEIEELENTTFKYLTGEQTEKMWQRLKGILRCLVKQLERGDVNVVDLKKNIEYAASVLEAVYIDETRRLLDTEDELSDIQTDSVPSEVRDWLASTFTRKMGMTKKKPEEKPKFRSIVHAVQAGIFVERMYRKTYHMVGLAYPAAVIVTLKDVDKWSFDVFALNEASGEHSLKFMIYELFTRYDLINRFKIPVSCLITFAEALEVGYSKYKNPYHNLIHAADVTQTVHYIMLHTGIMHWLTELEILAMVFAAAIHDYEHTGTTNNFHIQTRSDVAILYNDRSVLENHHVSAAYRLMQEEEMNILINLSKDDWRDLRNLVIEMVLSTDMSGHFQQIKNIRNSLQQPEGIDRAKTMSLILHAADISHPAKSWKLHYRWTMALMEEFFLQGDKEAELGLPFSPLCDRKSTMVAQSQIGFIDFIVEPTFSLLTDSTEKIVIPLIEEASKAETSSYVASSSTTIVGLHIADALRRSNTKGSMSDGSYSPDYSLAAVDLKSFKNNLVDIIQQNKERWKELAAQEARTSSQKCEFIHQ
PDE11A, sequence (Q9HCR9 whole entry, species assumed): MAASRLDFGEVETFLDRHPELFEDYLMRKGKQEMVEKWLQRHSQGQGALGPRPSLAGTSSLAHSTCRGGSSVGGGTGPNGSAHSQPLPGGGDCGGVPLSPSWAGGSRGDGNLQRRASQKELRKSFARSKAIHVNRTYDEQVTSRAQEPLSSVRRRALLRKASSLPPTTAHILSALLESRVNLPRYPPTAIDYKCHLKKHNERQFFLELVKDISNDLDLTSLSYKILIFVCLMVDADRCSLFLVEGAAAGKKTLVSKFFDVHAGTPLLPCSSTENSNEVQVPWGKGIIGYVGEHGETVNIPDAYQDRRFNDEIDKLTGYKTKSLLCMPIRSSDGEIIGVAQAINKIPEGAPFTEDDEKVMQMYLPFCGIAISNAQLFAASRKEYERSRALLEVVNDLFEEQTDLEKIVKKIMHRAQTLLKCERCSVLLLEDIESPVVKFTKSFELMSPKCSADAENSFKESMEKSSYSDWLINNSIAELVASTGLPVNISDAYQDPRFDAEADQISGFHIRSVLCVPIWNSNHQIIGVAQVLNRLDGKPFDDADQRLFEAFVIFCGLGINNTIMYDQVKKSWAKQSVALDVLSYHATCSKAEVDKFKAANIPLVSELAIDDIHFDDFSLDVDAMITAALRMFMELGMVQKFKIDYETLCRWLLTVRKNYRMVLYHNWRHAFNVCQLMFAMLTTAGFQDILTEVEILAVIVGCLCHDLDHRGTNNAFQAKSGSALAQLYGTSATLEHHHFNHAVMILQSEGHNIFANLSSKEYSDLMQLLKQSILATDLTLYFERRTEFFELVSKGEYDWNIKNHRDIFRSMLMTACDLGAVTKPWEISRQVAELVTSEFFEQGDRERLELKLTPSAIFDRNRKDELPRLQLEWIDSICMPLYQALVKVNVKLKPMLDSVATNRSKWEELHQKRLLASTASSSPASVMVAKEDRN
PDE3A, sequence (Q14432 whole entry, species assumed): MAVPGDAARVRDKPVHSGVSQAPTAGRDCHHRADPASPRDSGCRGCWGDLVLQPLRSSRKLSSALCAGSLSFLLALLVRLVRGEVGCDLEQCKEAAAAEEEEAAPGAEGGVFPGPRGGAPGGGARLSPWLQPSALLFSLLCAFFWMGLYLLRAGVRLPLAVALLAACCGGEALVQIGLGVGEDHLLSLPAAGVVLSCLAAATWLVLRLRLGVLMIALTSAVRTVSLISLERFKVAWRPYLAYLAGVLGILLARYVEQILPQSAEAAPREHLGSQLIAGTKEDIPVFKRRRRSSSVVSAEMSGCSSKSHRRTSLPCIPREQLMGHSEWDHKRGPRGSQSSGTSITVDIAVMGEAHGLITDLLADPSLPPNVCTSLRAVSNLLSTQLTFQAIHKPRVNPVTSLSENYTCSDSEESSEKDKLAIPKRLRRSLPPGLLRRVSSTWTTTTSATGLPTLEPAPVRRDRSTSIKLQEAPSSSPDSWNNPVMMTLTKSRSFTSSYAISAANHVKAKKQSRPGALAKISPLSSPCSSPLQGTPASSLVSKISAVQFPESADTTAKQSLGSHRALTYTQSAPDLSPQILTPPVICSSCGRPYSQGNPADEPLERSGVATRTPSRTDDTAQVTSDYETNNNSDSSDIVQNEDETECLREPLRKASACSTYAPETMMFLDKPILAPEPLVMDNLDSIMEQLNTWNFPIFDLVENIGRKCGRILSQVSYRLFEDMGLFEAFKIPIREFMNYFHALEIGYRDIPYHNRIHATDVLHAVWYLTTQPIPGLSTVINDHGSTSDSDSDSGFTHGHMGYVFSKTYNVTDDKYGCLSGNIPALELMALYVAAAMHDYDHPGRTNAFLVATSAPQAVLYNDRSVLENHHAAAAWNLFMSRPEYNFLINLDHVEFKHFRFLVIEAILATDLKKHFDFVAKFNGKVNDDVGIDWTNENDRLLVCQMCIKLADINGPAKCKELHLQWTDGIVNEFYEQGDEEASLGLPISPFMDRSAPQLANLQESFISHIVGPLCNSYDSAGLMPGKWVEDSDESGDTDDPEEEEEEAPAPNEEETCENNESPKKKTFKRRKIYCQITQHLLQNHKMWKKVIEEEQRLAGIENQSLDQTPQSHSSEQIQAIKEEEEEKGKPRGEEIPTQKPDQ

Structure (SMILES): COC(=O)[C@@]1(OC)C[C@H]2O[C@]1(C)n1c3ccccc3c3c4c(c5c6ccccc6n2c5c31)C(=O)N(C)C4 [KT 5823]
- PKA activity (VASP phosphorylation at serine 157) (HT-29 cells [1]; [11]): minimally affecting the activity of PKA
- PKG activation (VASP phosphorylation at serine 239) (HT-29 cells [1]; [11]): caused a decrease in PKG activation
- apoptosis by Western blot for cleaved-PARP (HT-29 cells [2]): reduced apoptosis

- pIC50 (PDE2A; [12]): 4.44
- pIC50 (PDE2A; [13]): < 4.30
- pIC50 (HCC-2998): 4.72
- cGMP IC50 (PDE9A): Inactive @ 10 μM
- pIC50 (PDE5): 5.07
- pIC50 (HCT-15): 4.84
- pIC50 (SW620): 4.71
- pIC50 [4]: 4.71 to 5.16
- cAMP IC50 (PDE1A; cAMP substrate): Inactive @ 10 μM
- cGMP IC50 (PDE1A; cGMP substrate): Inactive @ 10 μM
- pIC50 [6]: 4.87
- pIC50 [7]: 5.92
- cAMP IC50 (PDE3B; cAMP substrate): Inactive @ 10 μM
- cGMP IC50 (PDE3B; cGMP substrate): Inactive @ 10 μM
- pIC50 (PDE4B2): 5.63
- cAMP IC50 (PDE11A; cAMP substrate): Inactive @ 10 μM
- cGMP IC50 (PDE11A; cGMP substrate): Inactive @ 10 μM
- pIC50 (HT-29 cells [9]; HT-29, pretreated with 0.1μM H89 for 10 minutes, 72 hours): 5.32
- pIC50 (HT-29 cells [9]; HT-29, without H89, 72 hours): 5.34
- pIC50 (COLO-205): 4.73
- pIC50 (HCT116): 4.71
- pIC50 (PDE3A; [12]): < 4.30
- pIC50 (PDE3A; [13]): < 4.30
Structure (SMILES): Cn1cc(-c2ccncc2)c(-c2ccc(OCc3ccc4ccccc4n3)cc2)n1 [Pf-2545920, 2-[4-(1-Methyl-4-pyridin-4-yl-1H-pyrazol-3-yl)-phenoxymethyl]-quinoline]
- cell death (fluorescence intensity) (HT-29 colon tumor cells): induces cell death in a concentration-dependent manner
- pIC50 (KM12): 5.16
- β-catenin in the nucleus (SW-480 colon tumor cells; SW-480, 10 μM): reduced the amount of β-catenin in the nucleus
- total protein levels of β-catenin (SW-480 colon tumor cells; SW-480, 25 μM): total protein levels of β-catenin are decreased
- cells staining positive for Annexin V (HT-29 cells [3]; HT-29, 10 μM): 25.9%
- cells staining positive for both Annexin V and PI (HT-29 cells [3]; HT-29, 10 μM): 31.9%
- cells staining positive for Annexin V (HT-29 cells [3]; HT-29, 25 μM): 38.2%
- cells staining positive for both Annexin V and PI (HT-29 cells [3]; HT-29, 25 μM): 31.4%
- phosphorylated VASP (serine 239 and serine 157) ([5]; HCT-116, 5 μM, time course up to 8 hours, time-dependent): increased the level of phosphorylated VASP
- PKG and PKA activation (phosphorylation of VASP and CREB) ([5]; HCT-116, dose response, 1 hour): activated both PKG and PKA
- intracellular cAMP levels (HCT-116 [8]): increased
- intracellular cGMP levels (HCT-116 [10]): increased

Structure (SMILES): COc1ccc(C2CNC(=O)C2)cc1OC1CCCC1 (stereo not drawn) [rolipram]
- colon tumor cell growth (colon tumor cell): did not affect colon tumor cell growth

Structure (SMILES): O=S(=O)(NCCNC/C=C/c1ccc(Br)cc1)c1cccc2cnccc12 [H89]
- PKA activation (VASP phosphorylation at serine 157) (HT-29 cells [1]; [14]): blocks the activation of PKA in a concentration-dependent manner
- PKG activation (VASP phosphorylation at serine 239) (HT-29 cells [1]; [14]): blocking the activation of PKG, albeit at higher concentrations
- effect on sensitivity of cells to growth inhibitory activity of Pf-2545920 (HT-29 cells [9]; HT-29, 0.1μM H89 for 10 minutes before Pf-2545920 for 72 hours): had no effect on the sensitivity
